According to patent US9409952B2, “Peptide-compound cyclization method” (Chugai Seiyaku Kabushiki Kaisha, priority 2011, dated 2016):
Like-named read-outs stand apart in the source and are kept apart here. Starred links: 1 amine or outer side, 2 acyl side, 3 side chain; linkers in the order of their positions; H or OH if unused. Positions of bridges follow the written chain, without caps; N, C: chain ends. Non-standard residues stand in square brackets, D forms with d. Residues, ends and D or L forms follow the SMILES beside them. *: point of attachment. NMePhe(3-Cl) = CN[C@@H](Cc1cccc(Cl)c1)C(=O)O; NMeF = CN[C@@H](Cc1ccccc1)C(=O)O; NMeβAla = CN(CCC(=O)[*:2])[*:1]; NMeL = CN[C@@H](CC(C)C)C(=O)O; NMeA = CN[C@@H](C)C(=O)O; Piperidide = C1CCN(*)CC1

Tests used:
[1] = PAMPA (parallel artificial membrane permeability assay); assay type: in vitro ADME; conditions: PAMPA
Procedure, shortened: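 Artificial membrane was 10% (w/v) egg lecithin plus 0.5% (w/v) cholesterol in dodecane on a PVDF filter. A 10 mM DMSO stock was added at 0.5% (v/v) to donor buffer (50 mM MOPSO, pH 6.5, 5.0% glycocholic acid). After 18 h at 37 °C, LC/MS or LC/UV gave donor and acceptor levels for Pe.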

[2] = Metabolic stability in human hepatic microsome; assay type: in vitro ADME; conditions: microsomes
[3] = membrane permeation rate (Pe), 50 mM MOPSO buffer pH 6.5 with 5.0% glycocholic acid, 37° C., 18 hours, read-out: iPAMPA Pe
[4] = pH 7.4, human hepatic microsome, NADPH(+), read-out: CL NADPH(+)

Row | Structure (SMILES) | Papp at 18 hours, 50 µM [1, 3] [×10⁻⁶ cm/s] | microsomal CLint at 1 uM [2, 4] [µL/min/mg] | Papp at 18 hours, 50 µM ([1]; pH 6.5) [×10⁻⁶ cm/s] | microsomal CLint at 1 uM ([2]; human, pH 7.4, CL NADPH(+)) [µL/min/mg]
1 | CC[C@H](C)[C@@H]1NC(=O)[C@H](CC(C)C)N(C)C(=O)[C@H]([C@@H](C)O)NC(=O)[C@H](CC(C)C)N(C)C(=O)[C@H](C(C)C)NC(=O)[C@H](Cc2ccccc2)N(C)C(=O)CCN(C)C(=O)C[C@@H](C(=O)N2CCC[C@H]2C(=O)N[C@H](C(=O)N(C)[C@@H](Cc2cccc(Cl)c2)C(=O)N(C)[C@@H](Cc2ccccc2)C(=O)N[C@H](C(=O)N2CCCCC2)[C@@H](C)CC)C(C)C)NC1=O [DP-926] ([NMeβAla][NMeF]V[NMeL]T[NMeL]IDPV[NMePhe(3-Cl)][NMeF]I-Piperidide; lactam N-8) | 0.1 | 53 | – | –
2 | CC[C@H](C)[C@H](NC(=O)[C@H](CC(C)C)N(C)C(=O)[C@H](CC(C)C)N(C)C(=O)[C@H](Cc1cccc(Cl)c1)N(C)C(=O)[C@@H]1CC(=O)N(C)[C@@H](C)C(=O)N[C@@H](C(C)C)C(=O)N(C)[C@@H](Cc2ccccc2)C(=O)N[C@@H]([C@@H](C)O)C(=O)N2CCC[C@H]2C(=O)N(C)[C@@H](Cc2ccccc2)C(=O)N[C@@H](CC(C)C)C(=O)N1)C(=O)N1CCCCC1 [DP-927] ([NMeA]V[NMeF]TP[NMeF]LD[NMePhe(3-Cl)][NMeL][NMeL]I-Piperidide; lactam N-8) | – | – | 0.1 | 5
3 | CC[C@H](C)[C@H](NC(=O)[C@H](Cc1ccccc1)N(C)C(=O)[C@H](C)N(C)C(=O)[C@@H](NC(=O)[C@@H]1CC(=O)N[C@@H](C)C(=O)N[C@@H]([C@@H](C)O)C(=O)N(C)[C@@H](CC(C)C)C(=O)N[C@@H](C(C)C)C(=O)N(C)[C@@H](Cc2cccc(Cl)c2)C(=O)N(C)[C@@H](CC(C)C)C(=O)N[C@@H](Cc2ccccc2)C(=O)N1)[C@@H](C)CC)C(=O)N1CCCCC1 [DP-928] (AT[NMeL]V[NMePhe(3-Cl)][NMeL]FDI[NMeA][NMeF]I-Piperidide; lactam N-8) | 0.1 | 60 | – | –
4 | CC[C@H](C)[C@H](NC(=O)[C@H](CC(C)C)N(C)C(=O)[C@@H]1CCCN1C(=O)[C@H](Cc1ccccc1)N(C)C(=O)[C@@H]1CC(=O)N[C@H](C(C)C)C(=O)N[C@@H](C)C(=O)N(C)[C@@H](Cc2ccccc2)C(=O)N(C)[C@@H](C)C(=O)N[C@@H](Cc2ccccc2)C(=O)N(C)[C@@H](CC(C)C)C(=O)N[C@@H]([C@@H](C)O)C(=O)N1)C(=O)N1CCCCC1 [DP-929] ([dV]A[NMeF][NMeA]F[NMeL]TD[NMeF]P[NMeL]I-Piperidide; lactam N-8) | 12 | 49 | – | –
5 | CC[C@H](C)[C@H](NC(=O)[C@@H](NC(=O)[C@H](Cc1ccccc1)NC(=O)[C@H](CC(C)C)N(C)C(=O)[C@@H]1CC(=O)N(C)CCC(=O)N(C)[C@@H](C)C(=O)N[C@@H](CC(C)C)C(=O)N[C@@H]([C@@H](C)O)C(=O)N(C)[C@@H](Cc2ccccc2)C(=O)N(C)[C@@H](CC(C)C)C(=O)N(C)[C@@H](Cc2ccccc2)C(=O)N1)C(C)C)C(=O)N1CCCCC1 [DP-930] ([NMeβAla][NMeA]LT[NMeF][NMeL][NMeF]D[NMeL]FVI-Piperidide; lactam N-8) | 0.46 | 168 | – | –
6 | CC[C@H](C)[C@H](NC(=O)[C@H](C)N(C)C(=O)[C@H](CC(C)C)N(C)C(=O)[C@H](CC(C)C)NC(=O)[C@@H]1CC(=O)N[C@@H](Cc2ccccc2)C(=O)N[C@@H]([C@@H](C)CC)C(=O)N(C)[C@@H](CC(C)C)C(=O)N(C)[C@@H](CC(C)C)C(=O)N[C@@H](Cc2ccccc2)C(=O)N[C@@H]([C@@H](C)O)C(=O)N(C)[C@@H](Cc2cccc(Cl)c2)C(=O)N1)C(=O)N1CCCCC1 [DP-931] (FI[NMeL][NMeL]FT[NMePhe(3-Cl)]DL[NMeL][NMeA]I-Piperidide; lactam N-8) | 0.1 | 12 | – | –
7 | CC[C@H](C)[C@@H]1NC(=O)[C@H](Cc2ccccc2)N(C)C(=O)[C@H](CC(C)C)N(C)C(=O)[C@H](Cc2ccccc2)NC(=O)[C@H](C)N(C)C(=O)[C@H]([C@@H](C)O)NC(=O)[C@H](C(C)C)NC(=O)[C@@H](C(C)C)NC(=O)C[C@@H](C(=O)N(C)[C@@H](Cc2ccccc2)C(=O)N[C@H](C(=O)N(C)[C@@H](C)C(=O)N(C)[C@@H](CC(C)C)C(=O)N[C@H](C(=O)N2CCCCC2)[C@@H](C)CC)C(C)C)NC1=O [DP-935] ([dV]VT[NMeA]F[NMeL][NMeF]ID[NMeF]V[NMeA][NMeL]I-Piperidide; lactam N-9) | 0.1 | 29 | – | –
8 | CC[C@H](C)[C@H](NC(=O)[C@H](CC(C)C)N(C)C(=O)[C@@H]1CCCN1C(=O)[C@@H](NC(=O)[C@H](C)N(C)C(=O)[C@@H]1CC(=O)N[C@@H](C)C(=O)N(C)[C@@H](CC(C)C)C(=O)N(C)[C@@H](Cc2cccc(Cl)c2)C(=O)N[C@@H](C(C)C)C(=O)N(C)[C@@H](CC(C)C)C(=O)N(C)[C@@H](CC(C)C)C(=O)N[C@@H]([C@@H](C)O)C(=O)N[C@@H](Cc2ccccc2)C(=O)N1)C(C)C)C(=O)N1CCCCC1 [DP-936] (A[NMeL][NMePhe(3-Cl)]V[NMeL][NMeL]TFD[NMeA]VP[NMeL]I-Piperidide; lactam N-9) | 0.11 | 29 | – | –
